Measured values taken from patent US8673360B2, “Compositions that enable rapid-acting and highly absorptive intranasal administration” (Shin Nippon Biomedical Laboratories, Ltd., priority 2004, dated 2014).

Columns and labels:
[1] = Intranasal administration of oxycodone in cynomolgus monkeys: plasma oxycodone by HPLC, against subcutaneous injection
[2] = Intranasal administration of tropisetron in cynomolgus monkeys: plasma tropisetron by HPLC, against intravenous injection; assay type: in vivo
Description: A single dose of an intranasal delivery composition was nasally administered to cynomolgus monkeys (body weight: 4.3 to 7.2 kg). Each composition was encapsulated and administered nasally using a device for nasal administration (Bioactis Co. Ltd.).
27.5 mg of tropisetron hydrochloride (equivalent to 25 mg of tropisetron free base) (Sigma), which is an antiemetic agent, and 72.5 mg of crystalline cellulose (Asahi Kasei: Avicel™ PH-F20) were mixed thoroughly in a mortar. The obtained tropisetron composition was prepared and 4.4 mg tropisetron hydrochloride (equivalent to 4.0 mg of tropisetron free base) per head was administered nasally to male cynomolgus monkeys weighing from 6.3 to 7.2 kg (n=3).
The injection was given intravenously to male cynomolgus monkeys weighing 6.9 and 7.2 kg (n=2), at 0.22 mg tropisetron hydrochloride (equivalent to 0.20 mg of tropisetron free base) per kg weight.
The plasma concentration of tropisetron free base after administration was determined by the HPLC method.
The time course of plasma tropisetron concentration after intravenous injection was subjected to a 2-compartment model analysis using the linear least-square method. The area under the theoretical plasma concentration vs. time curve (AUC) was determined based on the theoretical plasma tropisetron concentration calculated.

Structure (SMILES)	Time at which the maximum plasma concentration of oxycodone was reached ([1]; intranasal, time course of plasma concentrations)	bioavailability ([1]; male, cynomolgus, cynomolgus monkey, plasma, other: intranasal, […])	Time at which the maximum plasma concentration of tropisetron was achieved ([2]; intranasal, time course of average plasma concentrations)	bioavailability ([2]; male, cynomolgus monkey, plasma, other: intranasal, nasal, 4 mg/body (0.59 mg/kg), compared with intravenous injection, read-out: BA (bioavailability) of tropisetron)
COc1ccc2c3c1O[C@H]1C(=O)CC[C@@]4(O)[C@@H](C2)N(C)CC[C@]314 [oxycodone]	20 min	71.7%		
CN1[C@@H]2CC[C@H]1C[C@@H](OC(=O)c1c[nH]c3ccccc13)C2 [tropisetron]			5 min	73.4%
